The record followed here is ChEMBL document CHEMBL6182887, “Chemical modification of monensin as a source of potent antiplasmodial agents” (Bioorg Med Chem, 2025).

For data set [1], the system named is Plasmodium berghei. Nature of the data set: Antiplasmodial activity against hepatic stage luciferase-expressing Plasmodium berghei sporozoites infected in human Huh-7 cells assessed as reduction in parasite burden preincubated for 1 hrs followed by infection and measured after 46 hrs by […]. In kind it is functional, organism-based. On the technique in general: Resazurin is reduced to fluorescent resorufin, in cell work by metabolically active cells.

The nature of data set [2]: Cytotoxicity against human Huh-7 cells assessed as reduction in cell viability incubated for 46 hrs by AlamarBlue dye based fluorescence analysis. In kind it is toxicity.
A short description of data set [3]: Selectivity index, ratio of CC50 for cytotoxicity against human Huh-7 cells to IC50 for antiplasmodial activity against hepatic stage luciferase-expressing Plasmodium berghei sporozoites infected in human Huh-7 cells. As to conditions: read-out: Ratio CC50/IC50. Type of data set: toxicity, cell-based.
Another data set has as its system Plasmodium falciparum. Nature of the data set: Antiplasmodial activity against Plasmodium falciparum. In kind it is functional, organism-based.
In data set [4] the test system is Plasmodium berghei. Nature of the data set: Potency index, ratio of monensin IC50 to test compound IC50 for antiplasmodial activity against hepatic stage luciferase-expressing Plasmodium berghei sporozoites infected in human Huh-7 cells assessed as reduction in parasite burden preincubated for 1 hrs followed by infection and measured after 46 hrs by […]. Type of data set: functional. As to conditions: time 47 hrs.

Molecules are shown by their SMILES.

What is called IC50 is the point on the concentration scale where inhibition reaches its midpoint. Broadly, the CC50 is the concentration that lowers cell viability or growth by half. Turning to `CC[C@@]1([C@@H]2O[C@@H]([C@H]3O[C@@](O)(CNC(=O)Nc4ccccc4)[C@H](C)C[C@@H]3C)C[C@@H]2C)CC[C@H]([C@]2(C)CC[C@]3(C[C@H](O)[C@@H](C)[C@@H]([C@@H](C)[C@@H](OC)[C@H](C)C(=O)O)O3)O2)O1`, the IC50 in the data set on Plasmodium berghei [1] is 2.9 nM. Besides, the CC50 at 46 h in data set [2] was 4200 nM. Further, the selectivity ratio in data set [3] is 1450.

In the case of `CC[C@@]1([C@@H]2O[C@@H]([C@H]3O[C@@](O)(COS(=O)(=O)c4ccc(C)cc4)[C@H](C)C[C@@H]3C)C[C@@H]2C)CC[C@H]([C@]2(C)CC[C@]3(C[C@H](O)[C@@H](C)[C@@H]([C@@H](C)[C@@H](OC)[C@H](C)C(=O)O)O3)O2)O1`, the IC50 with Plasmodium falciparum stood at 1.52 nM.

`CC[C@@]1([C@@H]2O[C@@H]([C@H]3O[C@@](O)(CNC(=O)CCC[P+](c4ccccc4)(c4ccccc4)c4ccccc4)[C@H](C)C[C@@H]3C)C[C@@H]2C)CC[C@H]([C@]2(C)CC[C@]3(C[C@H](O)[C@@H](C)[C@@H]([C@@H](C)[C@@H](OC)[C@H](C)C(=O)O)O3)O2)O1`: in the data set with Plasmodium berghei [1], the IC50 turned out to be 1490 nM. Besides, the CC50 at 46 h in data set [2] turned out to be 75300 nM. In addition, the selectivity ratio in data set [3] was 50.6.

Consider `CC[C@@]1([C@@H]2O[C@@H]([C@H]3O[C@@](O)(CO)[C@H](C)C[C@@H]3C)C[C@@H]2C)CC[C@H]([C@]2(C)CC[C@]3(C[C@H](O)[C@@H](C)[C@@H]([C@@H](C)[C@@H](OC)[C@H](C)C(=O)O)O3)O2)O1` [MONENSIN], for which the IC50 with Plasmodium berghei [1] was 5.5 nM; with Plasmodium falciparum it was 2.46 nM. The CC50 at 46 h in data set [2] worked out at 17500 nM. Also, in data set [3], the selectivity ratio came out at 3180.

For `CC[C@@]1([C@@H]2O[C@@H]([C@H]3O[C@@](O)(CO)[C@H](C)C[C@@H]3C)C[C@@H]2C)CC[C@H]([C@]2(C)CC[C@]3(C[C@H](O)[C@@H](C)[C@@H]([C@@H](C)[C@@H](OC)[C@H](C)C(=O)OCc4ccccc4)O3)O2)O1`, in the data set with Plasmodium berghei [1], the IC50 came to 81.6 nM. For the same compound, the CC50 at 46 h in data set [2] came out at 31300 nM. Also, the selectivity ratio in data set [3] was found to be 384.

As for `COc1cc(NC(C)CCCN)c2ncccc2c1` (configuration not stated) [PRIMAQUINE], the CC50 at 46 h in data set [2] stood at 139000 nM. Moreover, the selectivity ratio in data set [3] amounted to 16.4.

Consider `CC[C@@]1([C@@H]2O[C@@H]([C@H]3O[C@@](O)(COC(=O)Nc4ccccc4)[C@H](C)C[C@@H]3C)C[C@@H]2C)CC[C@H]([C@]2(C)CC[C@]3(C[C@H](O)[C@@H](C)[C@@H]([C@@H](C)[C@@H](OC)[C@H](C)C(=O)O)O3)O2)O1`, for which the half-inhibitory concentration (IC50) in the data set with Plasmodium berghei [1] stood at 0.7 nM. Also, the CC50 at 46 h in data set [2] stood at 3100 nM. Also, the selectivity ratio in data set [3] was determined as 4430. In addition, the “Ratio IC50” value in the data set with Plasmodium berghei [4] is listed as approximately 8.

With `CC[C@@]1([C@@H]2O[C@@H]([C@H]3O[C@@](O)(CNC(=O)c4ccccc4)[C@H](C)C[C@@H]3C)C[C@@H]2C)CC[C@H]([C@]2(C)CC[C@]3(C[C@H](O)[C@@H](C)[C@@H]([C@@H](C)[C@@H](OC)[C@H](C)C(=O)O)O3)O2)O1`, the half-inhibitory concentration (IC50) in the data set on Plasmodium berghei [1] amounted to 6.4 nM. The CC50 at 46 h in data set [2] worked out at 8400 nM. For the same compound, the selectivity ratio in data set [3] is 1310.

`CC[C@@]1([C@@H]2O[C@@H]([C@H]3O[C@@]4(COC(=O)O4)[C@H](C)C[C@@H]3C)C[C@@H]2C)CC[C@H]([C@]2(C)CC[C@]3(C[C@H](O)[C@@H](C)[C@@H]([C@@H](C)[C@@H](OC)[C@H](C)C(=O)O)O3)O2)O1`: it took 1.08 nM to reach half-maximal inhibition in the data set with Plasmodium falciparum (IC50).

For the compound `CC[C@@]1([C@@H]2O[C@@H]([C@H]3O[C@@](O)(CO)[C@H](C)C[C@@H]3C)C[C@@H]2C)CC[C@H]([C@]2(C)CC[C@]3(C[C@H](O)[C@@H](C)[C@@H]([C@@H](C)[C@@H](OC)[C@H](C)C(=O)OCCCC[P+](c4ccccc4)(c4ccccc4)c4ccccc4)O3)O2)O1`, the 50% inhibitory concentration (IC50) with Plasmodium berghei [1] was 623 nM. Moreover, the CC50 at 46 h in data set [2] was 5800 nM. The selectivity ratio in data set [3] stood at 9.3.
